# Key:
# HIV-1 LAI = assay: MAGI assay, HIV-1 LAI; format: cell-based; conditions: Human immunodeficiency virus 1, MAGI cells
# Description: Briefly, target cells (HeLa CD4/CCR5-LTR/β-gal; 10^4/well) were plated in 96-well flat microtiter culture plates. […] The test drugs were added initially and viruses were immediately inoculated onto the cells. Forty-eight hours after viral exposure, all blue cells in each well were counted. The cytotoxicity of the compound was determined by the MTT method as previously described. All experiments were performed in triplicate and AZT was used as reference anti-HIV-1 molecule.
# Cytotoxicity in PBMCs = format: cell-based, human; conditions: human, PHA-P-activated peripheral blood mononuclear cells (PBMCs)
# [1] = tested on: Tim-3 expression on CD4+ and CD8+ T cells; assay: Flow cytometry of Tim-3 on T cells of HIV-1-infected PBMCs; format: cell-based, human; conditions: day 9 post infection
# Excerpt: (§1) PBMCs (1 x 10^6/ml) were infected with 100 TCID50 of various HIV-1 strains (92UG037: primary R5-tropic strain; YU2B and BaL: R5-tropic lab strains, 93BR020: dual-tropic primary isolate; NL4-3: X4-tropic lab strain) and simultaneously treated with a range of concentrations of IND02-trimer in 24-well plates (Greiner) in duplicates. Cells were washed, fixed (4% paraformaldehyde) and stained on several days post infection (1-4-9-13-19) using the following mAbs against PD-1-Brilliant Violet 421, CD3-FITC, Tim-3-PE, CD4-PE-Cy7 (all from Biolegend) and CD8-APC (Miltenyi). Multicolor flow cytometric analyses were performed on a FACS Verse (BD Biosciences).
# (§2) Fig 5 Reduction of Tim-3 (left) and PD1 (right) expression on HIV-1 and IND02-trimer-treated CD8^+ (A) and CD4^+ (B) T cells. Stimulated PBMCs were simultaneously incubated with 0.4 to 40 μg/ml (0.46–46.3 μM) IND02-trimer and HIV-1 (92UG037, BaL, YU2b, 93BR020 or NL4-3). Up-regulation of Tim-3 (left) and PD-1 (right) on CD8^+ (A) and CD4^+ (B) T cells was impeded by the IND02-trimer, as shown by multicolour FACS analyses of live T cells on day 9 post co-treatment. Experiments were repeated in 4–5 independent experiments with cells from different donors and statistical differences were analyzed by the GraphPad prism software using the unpaired student’s t-test (2-tailed).
# [2] = tested on: PD-1 expression on CD4+ and CD8+ T cells; assay: Flow cytometry of PD-1 on T cells of HIV-1-infected PBMCs; format: cell-based, human; conditions: day 9 post infection
# Excerpt: as §1, §2
structure (smiles),measurement,setting,value
"Oc1cc(O)c2c(c1)O[C@@]1(c3ccc(O)c(O)c3)Oc3cc(O)c4c(c3[C@@H]2[C@H]1O)O[C@H](c1ccc(O)c(O)c1)[C@H](O)[C@H]4c1c(O)cc(O)c2c1O[C@H](c1ccc(O)c(O)c1)[C@H](O)C2 [IND02-trimer, cinnamtannin B1]",EC50,HIV-1 LAI,3.4 µg/mL
same,EC50,"HIV-1 LAI; 48 h, mean of triplicate ± SD",3.9 ± 1.6 µM
same,CC50,Cytotoxicity in PBMCs,23 ± 2 µM
same,Tim-3 expression on CD8+ T cells versus infected control cells,"[1]; HIV-1-infected PBMC cultures, 0.4 to 40 μg/ml (0.46–46.3 μM)",significantly lower expression
same,Tim-3 expression on CD4+ T cells versus infected control cells,[1]; HIV-1-infected PBMCs,decreased
same,PD-1 expression on CD8+ T cells versus infected control cells,"[2]; HIV-1-exposed PBMCs, all concentrations tested (0.4 to 40 μg/ml)",significantly reduced
same,PD-1 expression on CD4+ T cells versus infected control cells,[2]; HIV-1-infected PBMCs,decreased
